From patent US11072598B2, “Somatostatin modulators and uses thereof” (CRINETICS PHARMACEUTICALS, INC., priority 2017, dated 2021)

Target: T1, human somatostatin receptor subtype 2 (Homo sapiens, UniProt P30874)
T1 construct: expressed in transfected cells
Assay: cAMP functional assay for SSTR2 agonists
Assay type: cell-based
Settings: inhibition of cAMP activities via human SST2 receptor (SSTR2), CHO-K1 cells; read-out: EC50
From the text: General overview: All five SSTR subtypes are Gi coupled G-protein coupled receptors (GPCRs) that lead to decreases in intracellular cyclic AMP (cAMP) when activated by an agonist. Therefore, measurement of intracellular cAMP levels can be used to assess whether compounds of the invention are agonists of SSTR subtypes (John Kelly, Troy Stevens, W. Joseph Thompson, and Roland Seifert, Current Protocols in Pharmacology, 2005, 2.2.1-2.2). One example of an intracellular cAMP assay is described below. cAMP assay protocol:
Four days prior to the assay, 5,000 Chinese hamster ovary cells (CHO-K1, ATCC #CCL-61) stably expressing the human somatostatin receptor subtype 2 are plated in each well of a 96-well tissue culture-treated plate in Ham's F12 growth media (ThermoFisher #10-080-CM) supplemented with 10% donor bovine serum (Gemini Bio-Products #100-506), 100 U/mL penicillin; 100 ug/mL streptomycin; 2 mM L-glutamine (Gemini Bio-Products #400-110) and 0.2 mg/mL hygromycin B (GoldBio #31282-04-9). The cells are cultured at 37° C., 5% CO2 and 95% humidity. On the day of the assay, the media is aspirated and the cells are treated with 50 μL of 1.6 μM NKH477 (Sigma #N3290) plus various dilutions of compounds of the invention in assay buffer [1× Hank's Balanced Salt Solution (ThermoFisher #SH3058802), 0.5 mM HEPES pH 7.4, 0.1% bovine serum albumin, 0.2 mM 3-Isobutyl-1-methylxanthine (IBMX, VWR #200002-790)]. The cells are incubated for 20 minutes at 37° C. […] The cells are treated with 50 μL of lysis buffer (HRTF cAMP kit, Cisbio). The lysate is transferred to 384-well plates and cAMP detection and visualization antibodies are added and incubated for 1-24 hours at room temperature. The time-resolved fluorescent signal is read with a Tecan M1000Pro multiplate reader. The intracellular cAMP concentrations are calculated by regression to a standard curve and are plotted vs. the concentration of the compounds of the invention and the EC50 of the compounds are calculated using standard methods. All data manipluations are in GraphPad Prism v6.

T1 sequence (P30874 whole entry): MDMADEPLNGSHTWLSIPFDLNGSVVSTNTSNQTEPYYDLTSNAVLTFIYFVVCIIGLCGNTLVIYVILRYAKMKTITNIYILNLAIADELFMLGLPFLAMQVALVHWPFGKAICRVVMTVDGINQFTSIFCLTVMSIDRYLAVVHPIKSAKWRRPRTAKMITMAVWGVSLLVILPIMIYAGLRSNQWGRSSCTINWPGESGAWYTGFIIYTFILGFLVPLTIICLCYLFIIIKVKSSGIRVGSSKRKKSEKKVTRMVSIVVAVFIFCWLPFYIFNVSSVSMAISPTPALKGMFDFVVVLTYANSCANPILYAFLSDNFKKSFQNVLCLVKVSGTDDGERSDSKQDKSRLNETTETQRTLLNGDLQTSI

Row | EC50 [nM] | Compound
1 | < 10 | Cc1cc(C)cc(-c2cnc(N)c(-c3nc4cc(Cl)ccc4[nH]3)c2N2CC[C@@H](N)[C@H](C#N)C2)c1 (relative stereo) [Compound 1-41, trans-4-amino-1-[2-amino-3-(5-chloro-1H-1,3-benzodiazol-2-yl)-5-(3,5-dimethylphenyl)pyridin-4-yl]piperidine-3-carbonitrile]
2 | < 10 | Cc1cc(F)cc(-c2cnc(N)c(-c3nc4cc(Cl)ccc4[nH]3)c2N2CC[C@@H](N)[C@H](C#N)C2)c1 (relative stereo) [Compound 1-42, trans-4-amino-1-[2-amino-3-(5-chloro-1H-1,3-benzodiazol-2-yl)-5-(3-fluoro-5-methylphenyl)pyridin-4-yl]piperidine-3-carbonitrile]
3 | < 10 | CO[C@@H]1CN(c2c(-c3cc(C)cc(F)c3)cnnc2-c2cc3ccc(Cl)cc3[nH]2)CC[C@H]1N (relative stereo) [Compound 3-11, trans-1-[3-(6-chloro-1H-indol-2-yl)-5-(3-fluoro-5-methylphenyl)pyridazin-4-yl]-3-methoxypiperidin-4-amine]
4 | < 10 | Cc1cc(F)cc(-c2cnc(N)c(-c3nc4ccc(Cl)cc4n3C)c2N2CCC(N)CC2)c1 [Compound 1-29, 4-(4-aminopiperidin-1-yl)-3-(6-chloro-1-methyl-1H-1,3-benzodiazol-2-yl)-5-(3-fluoro-5-methylphenyl)pyridin-2-amine]
5 | < 10 | Cc1cc(F)cc(-c2cnc(N)c(-c3nc4cc5c(cc4[nH]3)OC(F)(F)O5)c2N2CCC(N)CC2)c1 [Compound 1-31, 4-(4-aminopiperidin-1-yl)-3-{5,5-difluoro-4,6-dioxa-10,12-diazatricyclo[7.3.0.0^3,7]dodeca-1,3 (7),8,10-tetraen-11-yl}-5-(3-fluoro-5-methylphenyl)pyridin-2-amine]
6 | < 10 | N#Cc1cc(F)cc(-c2cnc(N)c(-c3nc4cc(Cl)ccc4[nH]3)c2N2CCC(N)CC2)c1 [Compound 1-32, 3-[6-amino-4-(4-aminopiperidin-1-yl)-5-(5-chloro-1H-1,3-benzodiazol-2-yl)pyridin-3-yl]-5-fluorobenzonitrile]
7 | < 10 | Cc1cc(F)cc(-c2cnc(N)c(-c3cc4ccc(C#N)cc4[nH]3)c2N2CCC(N)CC2)c1 [Compound 1-33, 2-[2-amino-4-(4-aminopiperidin-1-yl)-5-(3-fluoro-5-methylphenyl)pyridin-3-yl]-1H-indole-6-carbonitrile]
8 | < 10 | Cc1cc(F)cc(-c2cnc(N)c(C=NOC(C)C)c2N2CCC(N)CC2)c1 [Compound 1-34]
9 | < 10 | Cc1cc(F)cc(-c2cnc(N)c(C=NOC(C)(C)C)c2N2CCC(N)CC2)c1 [Compound 1-35]
10 | 10 to 100 | Cc1cc(C)cc(-c2cnc(N)c(C=NOC(C)(C)C)c2N2CCC(N)CC2)c1 [Compound 1-36]
11 | < 10 | Cc1cc(Cl)cc(-c2cnc(N)c(C=NOC(C)C)c2N2CCC(N)CC2)c1 [Compound 1-37]
12 | < 10 | Cc1cc(Cl)cc(-c2cnc(N)c(C=NOC(C)(C)C)c2N2CCC(N)CC2)c1 [Compound 1-38]

More lines, now with the values behind:

Row | Compound | EC50 [nM]
13 | 4-(4-aminopiperidin-1-yl)-5-(3-fluoro-5-methylphenyl)-3-(7-methoxy-1H-1,3-benzodiazol-2-yl)pyridin-2-amine [Compound 1-13] | < 10
14 | 4-(4-aminopiperidin-1-yl)-5-(3-fluoro-5-methylphenyl)-3-{5-[(hydroxyimino)methyl]-1H-1,3-benzodiazol-2-yl}pyridin-2-amine [Compound 1-47] | < 10
15 | CO[C@@H]1CN(c2c(-c3cc(C)cc(F)c3)cnc(N)c2-c2nc3cc(Cl)ccc3[nH]2)CC[C@H]1N (relative stereo) [Compound 1-7, 4-[trans-4-amino-3-methoxypiperidin-1-yl]-3-(5-chloro-1H-1,3-benzodiazol-2-yl)-5-(3-fluoro-5-methylphenyl)pyridin-2-amine] | < 10
16 | C=Cn1c(-c2c(N)ncc(-c3cc(C)cc(F)c3)c2N2CCC(N)CC2)nc2cc(F)c(F)cc21 [Compound 1-4, 4-(4-aminopiperidin-1-yl)-3-(1-ethenyl-5,6-difluoro-1H-1,3-benzodiazol-2-yl)-5-(3-fluoro-5-methylphenyl)pyridin-2-amine] | < 10
17 | Cc1cc(F)cc(-c2cnc(N)c(-c3nc4cc(S(N)(=O)=O)ccc4[nH]3)c2N2CCC(N)CC2)c1 [Compound 1-9, 2-[2-amino-4-(4-aminopiperidin-1-yl)-5-(3-fluoro-5-methylphenyl)pyridin-3-yl]-1H-1,3-benzodiazole-5-sulfonamide] | < 10
18 | Cc1cc(F)cc(-c2cnc(N)c(-c3nc4ccc(F)c(F)c4[nH]3)c2N2CCC(N)CC2)c1 [Compound 1-15, 4-(4-aminopiperidin-1-yl)-3-(6,7-difluoro-1H-1,3-benzodiazol-2-yl)-5-(3-fluoro-5-methylphenyl)pyridin-2-amineine] | < 10
19 | Cc1cc(F)cc(-c2cnc(N)c(-c3nc4cc(OC5COC5)ccc4[nH]3)c2N2CCC(N)CC2)c1 [Compound 1-16, 4-(4-aminopiperidin-1-yl)-5-(3-fluoro-5-methylphenyl)-3-[5-(oxetan-3-yloxy)-1H-1,3-benzodiazol-2-yl]pyridin-2-amine] | < 10
20 | CONC(=O)c1cccc2nc(-c3c(N)ncc(-c4cc(C)cc(F)c4)c3N3CCC(N)CC3)[nH]c12 [Compound 1-17, 2-[2-amino-4-(4-aminopiperidin-1-yl)-5-(3-fluoro-5-methylphenyl)pyridin-3-yl]-N-methoxy-1H-1,3-benzodiazole-7-carboxamide] | 10 to 100
21 | CON(C)C(=O)c1cccc2nc(-c3c(N)ncc(-c4cc(C)cc(F)c4)c3N3CCC(N)CC3)[nH]c12 [Compound 1-18, 2-[2-amino-4-(4-aminopiperidin-1-yl)-5-(3-fluoro-5-methylphenyl)pyridin-3-yl]-N-methoxy-N-methyl-1H-1,3-benzodiazole-7-carboxamide] | 10 to 100
22 | Cc1cc(F)cc(-c2cnc(N)c(-c3nc4cc(OC5CCC5)ccc4[nH]3)c2N2CCC(N)CC2)c1 [Compound 1-19, 4-(4-aminopiperidin-1-yl)-3-(5-cyclobutoxy-1H-1,3-benzodiazol-2-yl)-5-(3-fluoro-5-methylphenyl)pyridin-2-amine] | < 10
23 | Cc1cc(F)cc(-c2cnc(N)c(-c3nc4cc(OC5CC5)ccc4[nH]3)c2N2CCC(N)CC2)c1 [Compound 1-20, 4-(4-aminopiperidin-1-yl)-3-(5-cyclopropoxy-1H-1,3-benzodiazol-2-yl)-5-(3-fluoro-5-methylphenyl)pyridin-2-amine] | < 10
24 | Cc1cc(F)cc(-c2cnc(N)c(-c3nc4cccc(C#N)c4[nH]3)c2N2CCC(N)CC2)c1 [Compound 1-21, 2-[2-amino-4-(4-aminopiperidin-1-yl)-5-(3-fluoro-5-methylphenyl)pyridin-3-yl]-1H-1,3-benzodiazole-7-carbonitrile] | < 10
25 | Cc1cc(F)cc(-c2cnc(N)c(-c3nc4cccc(C=NO)c4[nH]3)c2N2CCC(N)CC2)c1 [Compound 1-22, 4-(4-aminopiperidin-1-yl)-5-(3-fluoro-5-methylphenyl)-3-{7-[(hydroxyimino)methyl]-1H-1,3-benzodiazol-2-yl]pyridin-2-amine] | < 10
26 | CONC(=O)c1ccc2[nH]c(-c3c(N)ncc(-c4cc(C)cc(F)c4)c3N3CCC(N)CC3)nc2c1 [Compound 1-23, 2-[2-amino-4-(4-aminopiperidin-1-yl)-5-(3-fluoro-5-methylphenyl)pyridin-3-yl]-N-methoxy-1H-1,3-benzodiazole-5-carboxamide] | 10 to 100
27 | CON(C)C(=O)c1ccc2[nH]c(-c3c(N)ncc(-c4cc(C)cc(F)c4)c3N3CCC(N)CC3)nc2c1 [Compound 1-24, 2-[2-amino-4-(4-aminopiperidin-1-yl)-5-(3-fluoro-5-methylphenyl)pyridin-3-yl]-N-methoxy-N-methyl-1H-1,3-benzodiazole-5-carboxamide] | < 10
28 | Cc1cc(C#N)cc(-c2cnc(N)c(-c3nc4cc(Cl)ccc4[nH]3)c2N2CCC(N)CC2)c1 [Compound 1-25, 3-[6-amino-4-(4-aminopiperidin-1-yl)-5-(5-chloro-1H-1,3-benzodiazol-2-yl)pyridin-3-yl]-5-methylbenzonitrile] | < 10
29 | Cc1cc(F)cc(-c2cnc(N)c(-c3nc4cc(N5CC(F)C5)ccc4[nH]3)c2N2CCC(N)CC2)c1 [Compound 1-26, 4-(4-aminopiperidin-1-yl)-5-(3-fluoro-5-methylphenyl)-3-[5-(3-fluoroazetidin-1-yl)-1H-1,3-benzodiazol-2-yl]pyridin-2-amine] | < 10
30 | COC(=O)Nc1cccc2nc(-c3c(N)ncc(-c4cc(C)cc(F)c4)c3N3CCC(N)CC3)[nH]c12 [Compound 1-27, methyl N-{2-[2-amino-4-(4-aminopiperidin-1-yl)-5-(3-fluoro-5-methylphenyl)pyridin-3-yl]-1H-1,3-benzodiazol-7-yl}carbamate] | < 10
